From ChEMBL document CHEMBL3867482, “Design and synthesis of water soluble β-aminosulfone analogues of SCH 900229 as γ-secretase inhibitors” (Bioorg Med Chem Lett, 2016)
In brackets after ≈: the same amount, converted by molar mass.

Columns and labels:
[1] = Selectivity ratio of IC50 for human gamma secretase PS2 (1 to 467 residues) expressed in baculovirus infected sf9 cells co-expressing aph-1a to IC50 for gamma secretase PS1 (1 to 448 residues) expressed in baculovirus infected sf9 cells co-expressing aph-1a
[2] = Inhibition of gamma-secretase in HEK293 cell membranes expressing human APP Swedish/London double mutant assessed as reduction in amyloid beta 40 formation after 1 hr by electrochemiluminescence based immunoassay
[3] = Kinetic solubility of compound; type: physicochemical; conditions: read-out: Kinetic_solubility
[4] = tested on: Mus musculus; assay: Antialzheimer activity in B6C3F1 mouse assessed as amyloid beta 40 level in cortex at 10 mg/kg, po administered as single dose after 3 hrs relative to control; type: functional
[5] = tested on: Mus musculus; assay: Antialzheimer activity in B6C3F1 mouse assessed as amyloid beta 40 level in plasma at 10 mg/kg, po administered as single dose after 3 hrs relative to control; type: functional
[6] = Clearance in rat hepatocytes assessed per million cells by HPLC/atmospheric pressure chemical ionization/MS analysis; type: ADME, cell-based, Hepatocyte; conditions: read-out: CLH
[7] = molecular target: T1, Cytochrome P450 3A4 (Homo sapiens, UniProt P08684); assay: Inhibition of CYP3A4 in human liver microsomes after 30 secs by LC/MS/MS analysis; type: ADME
T1 sequence (P08684 whole entry): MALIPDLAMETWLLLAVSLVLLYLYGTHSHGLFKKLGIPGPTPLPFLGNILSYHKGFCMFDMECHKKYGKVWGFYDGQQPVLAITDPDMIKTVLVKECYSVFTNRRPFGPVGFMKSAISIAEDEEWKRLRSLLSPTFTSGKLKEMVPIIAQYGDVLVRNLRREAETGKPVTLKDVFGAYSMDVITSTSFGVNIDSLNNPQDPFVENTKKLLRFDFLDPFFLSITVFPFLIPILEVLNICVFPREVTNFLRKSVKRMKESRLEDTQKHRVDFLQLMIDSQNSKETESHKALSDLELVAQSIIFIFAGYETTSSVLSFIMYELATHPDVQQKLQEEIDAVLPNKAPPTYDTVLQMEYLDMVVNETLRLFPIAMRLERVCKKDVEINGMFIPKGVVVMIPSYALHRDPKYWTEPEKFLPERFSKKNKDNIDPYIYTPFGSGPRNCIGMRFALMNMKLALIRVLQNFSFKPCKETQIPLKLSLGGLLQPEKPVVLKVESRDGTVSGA

[8] = Clearance in monkey hepatocytes assessed per million cells by HPLC/atmospheric pressure chemical ionization/MS analysis; type: ADME, cell-based, Macaca mulatta, Hepatocyte; conditions: rhesus monkey, read-out: CLH
[9] = molecular target: Cytochrome P450 2D6 (Homo sapiens, UniProt P10635); assay: Inhibition of CYP2D6 in human liver microsomes after 30 secs by LC/MS/MS analysis; type: ADME
Sequence of Cytochrome P450 2D6 (P10635 whole entry): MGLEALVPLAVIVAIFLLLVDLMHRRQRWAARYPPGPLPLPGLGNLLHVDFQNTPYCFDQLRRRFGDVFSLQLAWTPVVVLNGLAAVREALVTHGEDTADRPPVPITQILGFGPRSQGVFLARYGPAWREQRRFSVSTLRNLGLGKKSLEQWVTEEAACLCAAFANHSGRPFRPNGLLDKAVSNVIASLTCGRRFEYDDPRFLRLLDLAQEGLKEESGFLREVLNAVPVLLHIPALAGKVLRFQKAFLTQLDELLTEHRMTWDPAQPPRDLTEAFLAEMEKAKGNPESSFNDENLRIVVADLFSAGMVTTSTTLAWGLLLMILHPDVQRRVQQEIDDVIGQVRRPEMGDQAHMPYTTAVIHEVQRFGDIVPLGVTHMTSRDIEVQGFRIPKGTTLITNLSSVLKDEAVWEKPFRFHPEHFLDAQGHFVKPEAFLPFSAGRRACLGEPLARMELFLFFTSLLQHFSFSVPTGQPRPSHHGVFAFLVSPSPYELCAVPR

[10] = Clearance in dog hepatocytes assessed per million cells by HPLC/atmospheric pressure chemical ionization/MS analysis; type: ADME, cell-based, Canis lupus familiaris, Hepatocyte; conditions: read-out: CLH
[11] = molecular target: T1, Cytochrome P450 3A4; assay: Inhibition of CYP3A4 in human liver microsomes preincubated for 30 mins after 30 secs by LC/MS/MS analysis; type: ADME
[12] = molecular target: Cytochrome P450 2C9 (Homo sapiens, UniProt P11712); assay: Inhibition of CYP2C9 in human liver microsomes after 30 secs by LC/MS/MS analysis; type: ADME
Sequence of Cytochrome P450 2C9 (P11712 whole entry): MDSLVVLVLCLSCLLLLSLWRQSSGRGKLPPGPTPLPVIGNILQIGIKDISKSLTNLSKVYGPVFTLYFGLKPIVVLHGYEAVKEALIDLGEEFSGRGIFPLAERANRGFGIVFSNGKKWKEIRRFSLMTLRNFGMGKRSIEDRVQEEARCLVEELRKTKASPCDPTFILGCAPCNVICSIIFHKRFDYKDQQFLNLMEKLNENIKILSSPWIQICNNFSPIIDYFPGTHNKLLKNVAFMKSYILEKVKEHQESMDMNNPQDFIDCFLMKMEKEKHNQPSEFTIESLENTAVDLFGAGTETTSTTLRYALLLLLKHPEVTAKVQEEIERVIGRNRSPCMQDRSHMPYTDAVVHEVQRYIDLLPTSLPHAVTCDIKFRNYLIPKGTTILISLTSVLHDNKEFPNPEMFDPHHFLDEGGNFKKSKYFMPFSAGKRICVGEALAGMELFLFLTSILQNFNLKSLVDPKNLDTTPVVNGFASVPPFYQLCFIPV

[13] = AUC (0 to 6 hrs) in mouse at 10 mg/kg, po by LC/MS/MS analysis; type: ADME, organism-based; design: time < 6 hr, dose 10 mg/kg, route oral; conditions: in vivo; for AUC: 6 h, BLD = below limit of detection
[14] = Clearance in human hepatocytes assessed per million cells by HPLC/atmospheric pressure chemical ionization/MS analysis; type: ADME, cell-based, Hepatocyte; conditions: read-out: CLH
[15] = Ratio of drug level in brain to plasma in mouse at 6 hrs; type: ADME, organism-based; conditions: brain and plasma, read-out: BPR

`O=S(=O)(CC[C@@H]1OCC[C@@]2(S(=O)(=O)c3ccc(Cl)cc3)c3c(F)ccc(F)c3OC[C@@H]12)[C@@H]1CCNC1` showed a Ratio IC50 [1] of 21.
With `CC(C)NCCS(=O)(=O)CC[C@@H]1OCC[C@@]2(S(=O)(=O)c3ccc(Cl)cc3)c3c(F)ccc(F)c3OC[C@@H]12` the Ratio IC50 [1] was 30 and the IC50 [2] was 0.5 nM.
Work on `CNCCS(=O)(=O)CC[C@@H]1OCC[C@@]2(S(=O)(=O)c3ccc(Cl)cc3)c3c(F)ccc(F)c3OC[C@@H]12` yielded a Ratio IC50 [1] of 25.
`O=S(=O)(CC[C@@H]1OCC[C@@]2(S(=O)(=O)c3ccc(Cl)cc3)c3c(F)ccc(F)c3OC[C@@H]12)[C@H]1CCNC1` [listing 1 of 2 here] showed a Ratio IC50 [1] of 30.
For `O=S(=O)(CC[C@@H]1OCC[C@@]2(S(=O)(=O)c3ccc(Cl)cc3)c3c(F)ccc(F)c3OC[C@@H]12)C[C@@H]1CCCN1` [listing 1 of 2 here], the Ratio IC50 [1] was 14.
In the case of `CCNCCS(=O)(=O)CC[C@@H]1OCC[C@@]2(S(=O)(=O)c3ccc(Cl)cc3)c3c(F)ccc(F)c3OC[C@@H]12.Cl`, the solubility kinetic [3] is reported as ≥ 200 µM.
`CS(=O)(=O)CC[C@@H]1OCC[C@@]2(S(=O)(=O)c3ccc(Cl)cc3)c3c(F)ccc(F)c3OC[C@@H]12` showed a Ratio IC50 [1] of 25, an Activity [4] of -78% and an IC50 [2] of 1.3 nM. It also gave an Activity [5] of -89%.
In the case of `O=S(=O)(CC[C@@H]1OCC[C@@]2(S(=O)(=O)c3ccc(Cl)cc3)c3c(F)ccc(F)c3OC[C@@H]12)CCN1CCOCC1`, the Ratio IC50 [1] is reported as 10 and the IC50 [2] is reported as 3.7 nM.
In the case of `NCCS(=O)(=O)CC[C@@H]1OCC[C@@]2(S(=O)(=O)c3ccc(Cl)cc3)c3c(F)ccc(F)c3OC[C@@H]12` [listing 1 of 2 here], the hepatocyte CLint [6] is reported as 12.1 µL/min/1e6 cells, the IC50 [7] is reported as 15100 nM and the hepatocyte CLint [8] is reported as 20.3 µL/min/1e6 cells. For the same compound, the IC50 [9] was > 20000 nM, the Activity [4] was -52% and the IC50 [2] was 0.8 nM. For the same compound, the hepatocyte CLint [10] was 6.4 µL/min/1e6 cells, the Activity [5] was -54% and the IC50 [11] was 2800 nM. For the same compound, the IC50 [12] was > 20000 nM, the AUC(0-t) at 6 h [13] was 0.582 µM·h and the hepatocyte CLint [14] was 8.5 µL/min/1e6 cells.
For `O=S(=O)(CC[C@@H]1OCC[C@@]2(S(=O)(=O)c3ccc(Cl)cc3)c3c(F)ccc(F)c3OC[C@@H]12)[C@H]1CCNC1` [listing 2 of 2 here], the hepatocyte CLint [6] was 18.9 µL/min/1e6 cells, the IC50 [7] was 2000 nM and the hepatocyte CLint [8] was 60.5 µL/min/1e6 cells. The IC50 [9] was > 20000 nM, the Activity [4] was -56% and the IC50 [2] was 1.4 nM. It also gave a hepatocyte CLint [10] of 21.1 µL/min/1e6 cells, an Activity [5] of -82% and an IC50 [11] of 1000 nM. The IC50 [12] was > 20000 nM, the AUC(0-t) at 6 h [13] was 1.02 µM·h and the Kp at 6 h [15] was 0.3. It also gave a hepatocyte CLint [14] of 34.2 µL/min/1e6 cells.
In the case of `CN(C)CCS(=O)(=O)CC[C@@H]1OCC[C@@]2(S(=O)(=O)c3ccc(Cl)cc3)c3c(F)ccc(F)c3OC[C@@H]12`, the hepatocyte CLint [6] is reported as 66.7 µL/min/1e6 cells, the IC50 [7] is reported as > 20000 nM and the hepatocyte CLint [8] is reported as 65 µL/min/1e6 cells. The Ratio IC50 [1] was 20, the solubility kinetic [3] was 50 µM (≈ 28.2 µg/mL) and the IC50 [9] was > 20000 nM. It also gave an Activity [4] of -45%, an IC50 [2] of 1.7 nM and a hepatocyte CLint [10] of 56.5 µL/min/1e6 cells. For the same compound, the Activity [5] was -21%, the IC50 [11] was 9000 nM and the IC50 [12] was > 20000 nM. The AUC [13] was “Bld” and the hepatocyte CLint [14] was 57.2 µL/min/1e6 cells.
With `CNCCS(=O)(=O)CC[C@@H]1OCC[C@@]2(S(=O)(=O)c3ccc(Cl)cc3)c3c(F)ccc(F)c3OC[C@@H]12.Cl` the solubility kinetic [3] was ≥ 200 µM.
With `O=S(=O)(CC[C@@H]1OCC[C@@]2(S(=O)(=O)c3ccc(Cl)cc3)c3c(F)ccc(F)c3OC[C@@H]12)CCN1CCCCC1` the Ratio IC50 [1] was 9 and the IC50 [2] was 1.3 nM.
In the case of `O=S(=O)(CC[C@@H]1OCC[C@@]2(S(=O)(=O)c3ccc(Cl)cc3)c3c(F)ccc(F)c3OC[C@@H]12)C[C@@H]1CCCN1` [listing 2 of 2 here], the hepatocyte CLint [6] is reported as 15.2 µL/min/1e6 cells, the IC50 [7] is reported as > 20000 nM and the hepatocyte CLint [8] is reported as 26.7 µL/min/1e6 cells. The IC50 [9] was > 20000 nM, the Activity [4] was -48% and the IC50 [2] was 0.7 nM. The hepatocyte CLint [10] was 12.5 µL/min/1e6 cells, the Activity [5] was -57% and the IC50 [11] was 1000 nM. For the same compound, the IC50 [12] was > 20000 nM, the AUC(0-t) at 6 h [13] was 0.674 µM·h and the Kp at 6 h [15] was 0.6. It also gave a hepatocyte CLint [14] of 5.6 µL/min/1e6 cells.
`NCCS(=O)(=O)CC[C@@H]1OCC[C@@]2(S(=O)(=O)c3ccc(Cl)cc3)c3c(F)ccc(F)c3OC[C@@H]12` [listing 2 of 2 here] showed a Ratio IC50 [1] of 35.
For `O=S(=O)(CCO)CC[C@@H]1OCC[C@@]2(S(=O)(=O)c3ccc(Cl)cc3)c3c(F)ccc(F)c3OC[C@@H]12`, the solubility kinetic [3] was > 200 µM, the Activity [4] was -46% and the IC50 [2] was 1 nM. The Activity [5] was -42%.
In the case of `O=S(=O)(CC[C@@H]1OCC[C@@]2(S(=O)(=O)c3ccc(Cl)cc3)c3c(F)ccc(F)c3OC[C@@H]12)CCN1CCNCC1`, the hepatocyte CLint [6] is reported as 6.1 µL/min/1e6 cells, the IC50 [7] is reported as > 20000 nM and the hepatocyte CLint [8] is reported as 12.7 µL/min/1e6 cells. The Ratio IC50 [1] was 10, the solubility kinetic [3] was 200 µM (≈ 121 µg/mL) and the IC50 [9] was > 20000 nM. The IC50 [2] was 0.8 nM, the hepatocyte CLint [10] was 7.7 µL/min/1e6 cells and the Activity [5] was -95%. For the same compound, the IC50 [11] was > 20000 nM, the IC50 [12] was > 20000 nM and the AUC [13] was “Bld”. For the same compound, the hepatocyte CLint [14] was 5.3 µL/min/1e6 cells.
For `O=S(=O)(CC[C@@H]1OCC[C@@]2(S(=O)(=O)c3ccc(Cl)cc3)c3c(F)ccc(F)c3OC[C@@H]12)C[C@H]1CCCN1`, the Ratio IC50 [1] was 23.
